Results: ChEMBL document CHEMBL1201862, “PubChem BioAssay data set” (2004)
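Method: 48-hour compound exposure of cells in 96-well plates, five concentrations, linear interpolation of endpoints. GI50 = concentration required for 50% inhibition of growth.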 Active and inactive are the calls of the source. No stated cut-off is given here; in the data, active = GI50 up to about 1.1 µM and inactive = higher.

Tests used:
Assay in all cases: growth of human tumour cells (NCI), 48 h
A549 = system: A549
CAKI-1 = system: CAKI-1
CCRF-CEM = system: CCRF-CEM
COLO 205 = system: COLO 205
HCC 2998 = system: HCC 2998
HL-60 = system: HL-60
HOP-62 = system: HOP-62
IGROV-1 = system: IGROV-1
LOX IMVI = system: LOX IMVI
MDA-MB-231 = system: MDA-MB-231
MDA-MB-435 = system: MDA-MB-435
NCI/ADR-RES = system: NCI/ADR-RES
OVCAR-3 = system: OVCAR-3
OVCAR-5 = system: OVCAR-5
SF-268 = system: SF-268
SR = system: SR
SW-620 = system: SW-620
TK-10 = system: TK-10
UACC-62 = system: UACC-62
UO-31 = system: UO-31

| Structure (SMILES) | GI50 (A549) | GI50 (CAKI-1) | GI50 (CCRF-CEM) | GI50 (COLO 205) | GI50 (HCC 2998) | GI50 (HL-60) | GI50 (HOP-62) | GI50 (IGROV-1) | GI50 (LOX IMVI) | GI50 (MDA-MB-231) | GI50 (MDA-MB-435) | GI50 (NCI/ADR-RES) | GI50 (OVCAR-3) | GI50 (OVCAR-5) | GI50 (SF-268) | GI50 (SR) | GI50 (SW-620) | GI50 (TK-10) | GI50 (UACC-62) | GI50 (UO-31) |
| --- | --- | --- | --- | --- | --- | --- | --- | --- | --- | --- | --- | --- | --- | --- | --- | --- | --- | --- | --- | --- |
| O=C(N/N=C\c1c(O)ccc2ccccc12)c1ccncc1 | 0.789 µM (active) | 1 µM (active) | 0.0887 µM (active) | 0.82 µM (active) | > 11.4 µM (inactive) | 0.518 µM (active) | 1.31 µM (inactive) | 0.148 µM (active) | 0.301 µM (active) | 0.254 µM (active) | 1.65 µM (inactive) | 0.562 µM (active) | 1.22 µM (inactive) | > 6.85 µM (inactive) | 0.341 µM (active) | 0.558 µM (active) | 0.769 µM (active) | > 7.23 µM (inactive) | 0.467 µM (active) | 0.356 µM (active) |
| COC(=O)C1C(OC(=O)C(Cl)(c2ccccc2)c2ccccc2)CC2CCC1N2C (stereo not given) | > 100 µM (inactive) | 94.6 µM (inactive) | > 100 µM (inactive) | > 100 µM (inactive) | > 100 µM (inactive) | > 100 µM (inactive) | > 100 µM (inactive) | > 100 µM (inactive) | > 100 µM (inactive) | > 100 µM (inactive) | > 100 µM (inactive) | > 100 µM (inactive) | > 100 µM (inactive) | > 100 µM (inactive) | > 100 µM (inactive) | > 100 µM (inactive) | > 100 µM (inactive) | > 100 µM (inactive) | > 100 µM (inactive) | > 100 µM (inactive) |
| CCOC(=O)CON=c1c2ccccc2ccc2ccccc12 | > 100 µM (inactive) | > 100 µM (inactive) | > 100 µM (inactive) | > 100 µM (inactive) | 26.1 µM (inactive) | > 100 µM (inactive) | > 100 µM (inactive) | > 100 µM (inactive) | > 100 µM (inactive) | > 100 µM (inactive) | > 100 µM (inactive) | > 100 µM (inactive) | > 100 µM (inactive) | > 100 µM (inactive) | > 100 µM (inactive) | > 100 µM (inactive) | > 100 µM (inactive) | > 100 µM (inactive) | > 100 µM (inactive) | > 100 µM (inactive) |
| CCCCCc1c2nc(c(CCCCC)c3ccc([nH]3)c(CCCCC)c3nc(c(CCCCC)c4ccc1[nH]4)C=C3)C=C2 | > 100 µM (inactive) | > 100 µM (inactive) | > 100 µM (inactive) | > 100 µM (inactive) | > 100 µM (inactive) | > 100 µM (inactive) | > 100 µM (inactive) | > 100 µM (inactive) | > 100 µM (inactive) | > 100 µM (inactive) | > 100 µM (inactive) | > 100 µM (inactive) | > 100 µM (inactive) | > 100 µM (inactive) | > 100 µM (inactive) | > 100 µM (inactive) | > 100 µM (inactive) | > 100 µM (inactive) | > 100 µM (inactive) | > 100 µM (inactive) |
| O=C(NCCCCCCNC(=O)n1cc(F)c(=O)[nH]c1=O)NCCCOCCOCCOCCOCCOCCOCCOCCOCCOCCOCCOCCOCCOCCOCCOCCOCCOCCOCCOCCOCCOCCCNC(=O)C(O)C(O)C(OC1OC(CO)C(O)C(O)C1O)C(O)CO (stereo not given) | 7.33 µM (inactive) | 70 µM (inactive) | > 83.8 µM (inactive) | 15.3 µM (inactive) | 1.71 µM (inactive) | 43.7 µM (inactive) | 20.6 µM (inactive) | 33.7 µM (inactive) | 18.9 µM (inactive) | > 71.4 µM (inactive) | 19.3 µM (inactive) | 47.2 µM (inactive) | 37.1 µM (inactive) | > 54 µM (inactive) | 75.5 µM (inactive) | 16 µM (inactive) | 64.7 µM (inactive) | > 100 µM (inactive) | 27.9 µM (inactive) | 13.4 µM (inactive) |
| NC(=O)c1nnc2ccc(F)cc2c1N | > 100 µM (inactive) | > 100 µM (inactive) | > 100 µM (inactive) | > 100 µM (inactive) | > 100 µM (inactive) | > 100 µM (inactive) | > 100 µM (inactive) | > 100 µM (inactive) | 69 µM (inactive) | > 100 µM (inactive) | > 100 µM (inactive) | > 100 µM (inactive) | > 100 µM (inactive) | 70 µM (inactive) | > 100 µM (inactive) | > 100 µM (inactive) | > 100 µM (inactive) | 68.7 µM (inactive) | > 100 µM (inactive) | 40.3 µM (inactive) |
